Test results from ChEMBL document CHEMBL1201862, “PubChem BioAssay data set” (2004).
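Dose response: 5 concentrations. Exposure: 48 h. Format: 96-well plates. Endpoint: linear interpolation; highest concentration if not reached. The concentration for 50% growth inhibition is given as GI50.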 Calls of active or inactive are those of the source. No stated cut-off is given here; in the data, active = GI50 up to about 1.1 µM and inactive = higher.

How the values were obtained:
Assay in all cases: NCI-60 cell line screen, 48 h
KM-20L2 = tested on: KM-20L2
M19-MEL = tested on: M19-MEL
RXF 631 = tested on: RXF 631
SF-295 = tested on: SF-295
COLO 205 = tested on: COLO 205
OVCAR-8 = tested on: OVCAR-8
SK-MEL-5 = tested on: SK-MEL-5
KM12 = tested on: KM12
OVCAR-5 = tested on: OVCAR-5
LXFL 529 = tested on: LXFL 529
OVCAR-4 = tested on: OVCAR-4
SF-539 = tested on: SF-539
ACHN = tested on: ACHN
HCT-116 = tested on: HCT-116
NCI-H226 = tested on: NCI-H226
SF-268 = tested on: SF-268
SNB-19 = tested on: SNB-19
U-251 = tested on: U-251
DMS-114 = tested on: DMS-114
HOP-18 = tested on: HOP-18
HCC 2998 = tested on: HCC 2998
IGROV-1 = tested on: IGROV-1
DMS-273 = tested on: DMS-273
M14 = tested on: M14
HCT-15 = tested on: HCT-15
UO-31 = tested on: UO-31
NCI-H23 = tested on: NCI-H23
Malme-3M = tested on: Malme-3M
K562 = tested on: K562
UACC-257 = tested on: UACC-257
SNB-75 = tested on: SNB-75
SK-OV-3 = tested on: SK-OV-3
HT-29 = tested on: HT-29
SK-MEL-28 = tested on: SK-MEL-28
SN12C = tested on: SN12C
HOP-92 = tested on: HOP-92
MOLT-4 = tested on: MOLT-4
XF498 = tested on: XF498
UACC-62 = tested on: UACC-62
TK-10 = tested on: TK-10
EKVX = tested on: EKVX
SNB-78 = tested on: SNB-78
RPMI-8226 = tested on: RPMI-8226
SK-MEL-2 = tested on: SK-MEL-2
HOP-62 = tested on: HOP-62
RXF 393 = tested on: RXF 393
LOX IMVI = tested on: LOX IMVI
786-0 = tested on: 786-0
CAKI-1 = tested on: CAKI-1
OVCAR-3 = tested on: OVCAR-3
NCI-H460 = tested on: NCI-H460
NCI-H522 = tested on: NCI-H522
SW-620 = tested on: SW-620
DLD-1 = tested on: DLD-1
A498 = tested on: A498
HL-60 = tested on: HL-60
CCRF-CEM = tested on: CCRF-CEM
A549 = tested on: A549

Q: How did the GI50 (KM-20L2) turn out when `CCOC(=O)C(=O)Nc1c(C)cccc1C(C)(C)C` was run?
A: > 100 µM (inactive)

Q: What about the GI50 (M19-MEL) of the same compound?
A: > 100 µM (inactive)

Q: What about the GI50 (RXF 631) of the same compound?
A: > 100 µM (inactive)

Q: And the GI50 (SF-295)?
A: > 100 µM (inactive)

Q: What about the GI50 (COLO 205) of the same compound?
A: > 100 µM (inactive)

Q: What about the GI50 (OVCAR-8) of the same compound?
A: > 100 µM (inactive)

Q: What about the GI50 (SK-MEL-5) of the same compound?
A: > 100 µM (inactive)

Q: And the GI50 (KM12)?
A: > 100 µM (inactive)

Q: What about the GI50 (OVCAR-5) of the same compound?
A: > 100 µM (inactive)

Q: And the GI50 (LXFL 529)?
A: > 100 µM (inactive)

Q: What about the GI50 (OVCAR-4) of the same compound?
A: 73.3 µM (inactive)

Q: What about the GI50 (SF-539) of the same compound?
A: > 100 µM (inactive)

Q: And the GI50 (ACHN)?
A: > 100 µM (inactive)

Q: What about the GI50 (HCT-116) of the same compound?
A: > 100 µM (inactive)

Q: What about the GI50 (NCI-H226) of the same compound?
A: > 100 µM (inactive)

Q: And the GI50 (SF-268)?
A: > 100 µM (inactive)

Q: What about the GI50 (SNB-19) of the same compound?
A: > 100 µM (inactive)

Q: What about the GI50 (U-251) of the same compound?
A: > 100 µM (inactive)

Q: And the GI50 (DMS-114)?
A: > 100 µM (inactive)

Q: What about the GI50 (HOP-18) of the same compound?
A: > 100 µM (inactive)

Q: What about the GI50 (HCC 2998) of the same compound?
A: > 100 µM (inactive)

Q: And the GI50 (IGROV-1)?
A: > 100 µM (inactive)

Q: And the GI50 (DMS-273)?
A: > 100 µM (inactive)

Q: What about the GI50 (M14) of the same compound?
A: > 100 µM (inactive)

Q: And the GI50 (HCT-15)?
A: > 100 µM

Q: What about the GI50 (UO-31) of the same compound?
A: > 100 µM (inactive)

Q: What about the GI50 (NCI-H23) of the same compound?
A: > 100 µM (inactive)

Q: And the GI50 (Malme-3M)?
A: > 100 µM (inactive)

Q: What about the GI50 (K562) of the same compound?
A: > 100 µM (inactive)

Q: What about the GI50 (UACC-257) of the same compound?
A: > 100 µM (inactive)

Q: What about the GI50 (SNB-75) of the same compound?
A: 49.1 µM (inactive)

Q: And the GI50 (SK-OV-3)?
A: > 100 µM (inactive)

Q: And the GI50 (HT-29)?
A: > 100 µM (inactive)

Q: And the GI50 (SK-MEL-28)?
A: > 100 µM (inactive)

Q: What about the GI50 (SN12C) of the same compound?
A: > 100 µM (inactive)

Q: And the GI50 (HOP-92)?
A: > 100 µM (inactive)

Q: What about the GI50 (MOLT-4) of the same compound?
A: > 100 µM (inactive)

Q: And the GI50 (XF498)?
A: > 100 µM (inactive)

Q: What about the GI50 (UACC-62) of the same compound?
A: > 100 µM (inactive)

Q: And the GI50 (TK-10)?
A: > 100 µM (inactive)

Q: What about the GI50 (EKVX) of the same compound?
A: > 100 µM (inactive)

Q: What about the GI50 (SNB-78) of the same compound?
A: > 100 µM (inactive)

Q: And the GI50 (RPMI-8226)?
A: > 100 µM (inactive)

Q: And the GI50 (SK-MEL-2)?
A: > 100 µM (inactive)

Q: And the GI50 (HOP-62)?
A: > 100 µM (inactive)

Q: What about the GI50 (RXF 393) of the same compound?
A: > 100 µM (inactive)

Q: And the GI50 (LOX IMVI)?
A: > 100 µM (inactive)

Q: What about the GI50 (786-0) of the same compound?
A: > 100 µM (inactive)

Q: And the GI50 (CAKI-1)?
A: > 100 µM (inactive)

Q: What about the GI50 (OVCAR-3) of the same compound?
A: > 100 µM (inactive)

Q: What about the GI50 (NCI-H460) of the same compound?
A: > 100 µM (inactive)

Q: And the GI50 (NCI-H522)?
A: > 100 µM (inactive)

Q: What about the GI50 (SW-620) of the same compound?
A: > 100 µM (inactive)

Q: Which GI50 (KM-20L2) does the source give for `COc1cc(C(=O)C/C(CCCC(=O)Nc2ccccc2[N+](=O)[O-])=N/NC(=O)c2cc3ccccc3cc2O)ccc1O` here?
A: 27.4 µM (inactive)

Q: What about the GI50 (RXF 631) of the same compound?
A: > 71.4 µM (inactive)

Q: What about the GI50 (SF-295) of the same compound?
A: 44.4 µM (inactive)

Q: And the GI50 (COLO 205)?
A: 21.7 µM (inactive)

Q: What about the GI50 (OVCAR-8) of the same compound?
A: 26.8 µM (inactive)

Q: And the GI50 (SK-MEL-5)?
A: 34.4 µM (inactive)

Q: And the GI50 (KM12)?
A: 24.5 µM (inactive)

Q: What about the GI50 (OVCAR-5) of the same compound?
A: 46.3 µM (inactive)

Q: What about the GI50 (OVCAR-4) of the same compound?
A: 38.3 µM (inactive)

Q: And the GI50 (SF-539)?
A: 37.9 µM (inactive)

Q: What about the GI50 (ACHN) of the same compound?
A: 28.9 µM (inactive)

Q: What about the GI50 (HCT-116) of the same compound?
A: 34.4 µM (inactive)

Q: What about the GI50 (NCI-H226) of the same compound?
A: > 81.7 µM (inactive)

Q: And the GI50 (SF-268)?
A: 23.8 µM (inactive)

Q: What about the GI50 (SNB-19) of the same compound?
A: > 80.2 µM (inactive)

Q: What about the GI50 (U-251) of the same compound?
A: 52.1 µM (inactive)

Q: What about the GI50 (HOP-18) of the same compound?
A: 6.24 µM (inactive)

Q: And the GI50 (HCC 2998)?
A: 28.9 µM (inactive)

Q: What about the GI50 (IGROV-1) of the same compound?
A: 34.4 µM (inactive)

Q: What about the GI50 (DMS-273) of the same compound?
A: 15.6 µM (inactive)

Q: And the GI50 (M14)?
A: 20.8 µM (inactive)

Q: And the GI50 (HCT-15)?
A: 20.2 µM

Q: What about the GI50 (UO-31) of the same compound?
A: 13.9 µM (inactive)

Q: And the GI50 (NCI-H23)?
A: 41.4 µM (inactive)

Q: What about the GI50 (Malme-3M) of the same compound?
A: 29.2 µM (inactive)

Q: And the GI50 (K562)?
A: 20.2 µM (inactive)

Q: And the GI50 (DLD-1)?
A: 36.7 µM (inactive)

Q: And the GI50 (UACC-257)?
A: 27.7 µM (inactive)

Q: And the GI50 (SNB-75)?
A: > 91.2 µM (inactive)

Q: And the GI50 (SK-OV-3)?
A: 49.7 µM (inactive)

Q: And the GI50 (HT-29)?
A: 41.9 µM (inactive)

Q: And the GI50 (SK-MEL-28)?
A: 58.2 µM (inactive)

Q: And the GI50 (A498)?
A: > 100 µM (inactive)

Q: And the GI50 (SN12C)?
A: 44 µM (inactive)

Q: What about the GI50 (HOP-92) of the same compound?
A: 32.7 µM (inactive)

Q: What about the GI50 (HL-60) of the same compound?
A: 0.556 µM (active)

Q: And the GI50 (MOLT-4)?
A: 26.1 µM (inactive)

Q: And the GI50 (XF498)?
A: > 100 µM (inactive)

Q: And the GI50 (UACC-62)?
A: 17.6 µM (inactive)

Q: And the GI50 (CCRF-CEM)?
A: 8 µM (inactive)

Q: And the GI50 (TK-10)?
A: 52.5 µM (inactive)

Q: What about the GI50 (EKVX) of the same compound?
A: 16.5 µM (inactive)

Q: And the GI50 (SNB-78)?
A: > 63.8 µM (inactive)

Q: And the GI50 (RPMI-8226)?
A: > 46.9 µM (inactive)

Q: What about the GI50 (SK-MEL-2) of the same compound?
A: > 42.7 µM (inactive)

Q: And the GI50 (HOP-62)?
A: 94.8 µM (inactive)

Q: What about the GI50 (RXF 393) of the same compound?
A: > 71 µM (inactive)

Q: What about the GI50 (LOX IMVI) of the same compound?
A: 23.9 µM (inactive)

Q: And the GI50 (786-0)?
A: 32.4 µM (inactive)

Q: What about the GI50 (CAKI-1) of the same compound?
A: > 68.9 µM (inactive)

Q: And the GI50 (OVCAR-3)?
A: 16.1 µM (inactive)

Q: And the GI50 (NCI-H460)?
A: 40.6 µM (inactive)

Q: What about the GI50 (NCI-H522) of the same compound?
A: 36.6 µM (inactive)

Q: And the GI50 (SW-620)?
A: 46.5 µM (inactive)

Q: What about the GI50 (A549) of the same compound?
A: 54.5 µM (inactive)
